# System: Japanese white rabbits
# Assay: Dryness stress test using rabbits (methylene blue staining of corneas)
# Assay type: in vivo, rabbit
# Conditions: eyelids open 3 hours, 100 μL per eye, 0.5% w/v or 3% w/v in physiological saline, compared with sodium chondroitin sulfate around 20,000, p<0.01
# Method: Sodium chondroitin sulfate having a weight average molecular weight of around 20,000 (Maruha Nichiro Corporation; sodium chondroitin sulfate in Japanese Pharmaceutical Codex) or sodium chondroitin sulfate having a weight average molecular weight of around 40,000 (SEIKAGAKU CORPORATION; grade N-K) was dissolved in a physiological saline solution (Otsuka Pharmaceutical Factory, Inc.) to 0.5% w/v or 3% w/v separately to prepare test substances.
# Rabbits (Japanese white rabbits (KITAYAMA LABES CO., LTD.)) classified into five groups (n=5) according to the method of Nagano et al. (Journal of the Eye, 13(2), 267-270, 1996) were put under general anesthesia, rings obtained by cutting finger portions of gloves into a ring form were then installed on the right and left eyeballs, and the eyelids were opened forcedly. […] The corneas were excised from the eye surfaces, methylene blue dye was then extracted, and the absorbance at 660 nm was measured using the microplate reader Multiskan GO (Thermo Fisher Scientific K.K.). Since a cornea lesion is formed by eye dryness, and the amount of the dye attached to the cornea surfaces increases, it can be estimated that as the absorbance value increases, the eyes become dryer.
substance,measurement,value
sodium chondroitin sulfate,absorbance at 660 nm (methylene blue dye extracted from corneas),remarkably low
